Reference: patent publication US20240327334A1, “Covalent Inhibitors As Antiviral Agents” (Enanta Pharmaceuticals, Inc., priority 2022, published 2024)

What was measured:
[1] = test system: SARS-CoV-2 replicon; experiment: microbe, parasite or virus in culture; assay type: cell-based; conditions: Severe acute respiratory syndrome coronavirus 2, Huh-7
[2] = target: SARS-CoV-2 Papain-like (PLpro) protease (Severe acute respiratory syndrome coronavirus 2, UniProt P0DTD1); experiment: SARS-CoV-2 Papain-like (PLpro) protease biochemical enzyme inhibition assay (ubiquitin-fluorophore substrate, Ub-R110); conditions: Ub-R110 substrate; run in duplicate; read-out: PLpro IC50

| Compound | EC50 [1] [µM] | IC50 [2] [µM] |
| --- | --- | --- |
| N#CCNC(=O)C(=O)NCc1ccccc1C(=O)NC1(c2ccc(F)c3ccccc23)CC1 [Example 121] | < 1 | < 0.1 |
| N#CCNC(=O)C(=O)NCc1ccccc1C(=O)NC1(c2cc(C#N)cc(-c3cccs3)c2)CC1 [Example 127] | 1 to 10 | < 0.1 |
| C#CCNC(=O)C(=O)NCc1ccccc1C(=O)NC1(c2cc(C#N)cc(-c3cccs3)c2)CC1 [Example 128] | < 1 | < 0.1 |
| N#Cc1cc(-c2cccs2)cc(C2(NC(=O)c3ccccc3CNC(=O)C(=O)NCC#Cc3nccs3)CC2)c1 [Example 129] | < 1 | < 0.1 |
| Cc1nn(C2CC2)c(C)c1-c1cc(Cl)cc(C2(NC(=O)c3ccccc3CNC(=O)C(=O)NCC#N)CC2)c1 [Example 130] | 1 to 10 | < 0.1 |
| C#CCNC(=O)C(=O)NCc1ccccc1C(=O)NC1(c2cc(Cl)cc(-c3c(C)nn(C4CC4)c3C)c2)CC1 [Example 131] | < 1 | < 0.1 |
| Cc1nn(C2CC2)c(C)c1-c1cc(Cl)cc(C2(NC(=O)c3ccccc3CNC(=O)C(=O)NCC#Cc3nccs3)CC2)c1 [Example 132] | < 1 | < 0.1 |
| N#CCNC(=O)C(=O)NCc1ccccc1C(=O)NC1(c2cc(-c3cnn(C4CC4)c3)cc(C3CC3)c2)CC1 [Example 133] | 1 to 10 | < 0.1 |
| O=C(NCC#Cc1nccs1)C(=O)NCc1ccccc1C(=O)NC1(c2cc(-c3cnn(C4CC4)c3)cc(C3CC3)c2)CC1 [Example 134] | < 1 | < 0.1 |
| O=C(NCC#Cc1ccc(F)cn1)C(=O)NCc1ccccc1C(=O)NC1(c2cc(-c3cnn(C4CC4)c3)cc(C3CC3)c2)CC1 [Example 135] | < 1 | < 0.1 |
| O=C(NCC#Cc1nccs1)C(=O)NCc1ccccc1C(=O)NC1(c2cc(F)cc(-c3ccn(C(F)F)n3)c2)CC1 [Example 136] | < 1 | < 0.1 |
| O=C(NCC#Cc1ncco1)C(=O)NCc1ccccc1C(=O)NC1(c2ccc3ccccc3c2)CC1 [Example 137] | < 1 | < 0.1 |
| O=C(NCC#Cc1nccs1)C(=O)NCc1ccccc1C(=O)NC1(c2cc(F)cc(C(=O)N3CCOCC3)c2)CC1 [Example 138] | < 1 | < 0.1 |
| Cc1nn(C2CC2)c(C)c1-c1cc(F)cc(C2(NC(=O)c3ccccc3CNC(=O)C(=O)NCC#Cc3nccs3)CC2)c1 [Example 139] | < 1 | < 0.1 |
| Cc1nn(C(F)F)c(C)c1-c1cc(F)cc(C2(NC(=O)c3ccccc3CNC(=O)C(=O)NCC#Cc3nccs3)CC2)c1 [Example 140] | < 1 | < 0.1 |
| C[C@@H](C#Cc1ncc(F)cn1)NC(=O)C(=O)NCc1ccccc1C(=O)NC1(c2cc(F)cc(-c3cnn(C4CC4)c3)c2)CC1 [Example 144] | < 1 | < 0.1 |
| C[C@@H](C#Cc1ccc(C#N)cc1F)NC(=O)C(=O)NCc1ccccc1C(=O)NC1(c2cc(F)cc(-c3cnn(C4CC4)c3)c2)CC1 [Example 145] | < 1 | < 0.1 |
| CC[C@@H](C#Cc1nccs1)NC(=O)C(=O)NCc1ccccc1C(=O)NC1(c2ccc3nn(C)cc3c2)CC1 [Example 146] | < 1 | < 0.1 |
| Cn1cc2cc(C3(NC(=O)c4ccccc4CNC(=O)C(=O)NCC#Cc4ccc(S(C)(=O)=O)cc4F)CC3)ccc2n1 [Example 147] | < 1 | < 0.1 |
| COc1cc(C2(NC(=O)c3ccccc3CNC(=O)C(=O)N[C@@H](C)C#Cc3ccc(S(C)(=O)=O)cc3F)CC2)cc2cn(C3CC3)nc12 [Example 149] | < 1 | < 0.1 |
| O=C(NC/C=C1\CCOC1=O)C(=O)NCc1ccccc1C(=O)NC1(c2cc(Br)cc3ccccc23)CC1 [Example 151] | < 1 | < 0.1 |
| N#C/C=C/CNC(=O)C(=O)NCc1ccccc1C(=O)NC1(c2cc(Br)cc3ccccc23)CC1 [Example 152] | < 1 | < 0.1 |
| O=C(NC/C=C1\CCOC1=O)C(=O)NCc1ccccc1C(=O)NC1(c2cccc3ccccc23)CC1 [Example 153] | < 1 | < 0.1 |
| O=C(NCC#CBr)C(=O)NCc1ccccc1C(=O)NC1(c2cc(Br)cc3ccccc23)CC1 [Example 154] | < 1 | < 0.1 |
| CS(=O)(=O)/C=C/CNC(=O)C(=O)NCc1ccccc1C(=O)NC1(c2cccc3ccccc23)CC1 [Example 155] | < 1 | < 0.1 |
| C#C[C@H](C)NC(=O)C(=O)NCc1ccccc1C(=O)NC1(c2cccc3ccccc23)CC1 [Example 156] | < 1 | < 0.1 |

| Compound | EC50 [1] [µM] | IC50 [2] [µM] |
| --- | --- | --- |
| O=C(NCC#Cc1cncnc1)C(=O)NCc1ccccc1C(=O)NC1(c2cccc3ccccc23)CC1 [Example 158] | < 1 | < 0.1 |
| O=C(NCC#Cc1cscn1)C(=O)NCc1ccccc1C(=O)NC1(c2cccc3ccccc23)CC1 [Example 159] | < 1 | < 0.1 |
| O=C(NCC#Cc1nccs1)C(=O)NCc1ccccc1C(=O)NC1(c2cccc3ccccc23)CC1 [Example 160] | < 1 | < 0.1 |
| CS(=O)(=O)/C=C/CNC(=O)C(=O)NCc1ccccc1C(=O)NC1(c2ccc3ccccc3c2)CC1 [Example 161] | < 1 | < 0.1 |
| O=C(NCC#CBr)C(=O)NCc1ccccc1C(=O)NC1(c2ccc3ccccc3c2)CC1 [Example 163] | < 1 | < 0.1 |
| O=C(NCC#Cc1cscn1)C(=O)NCc1ccccc1C(=O)NC1(c2ccc3ccccc3c2)CC1 [Example 165] | 1 to 10 | < 0.1 |
| O=C(NCC#Cc1cncnc1)C(=O)NCc1ccccc1C(=O)NC1(c2ccc3ccccc3c2)CC1 [Example 166] | < 1 | < 0.1 |
| O=C(NCC#Cc1nccs1)C(=O)NCc1ccccc1C(=O)NC1(c2ccc3ccccc3c2)CC1 [Example 167] | < 1 | < 0.1 |
| O=C(NCC#Cc1ncccn1)C(=O)NCc1ccccc1C(=O)NC1(c2ccc3ccccc3c2)CC1 [Example 168] | < 1 | < 0.1 |
| N#Cc1ccc(C#CCNC(=O)C(=O)NCc2ccccc2C(=O)NC2(c3ccc4ccccc4c3)CC2)cc1 [Example 171] | < 1 | < 0.1 |
| O=C(NCC#Cc1cnccn1)C(=O)NCc1ccccc1C(=O)NC1(c2ccc3ccccc3c2)CC1 [Example 172] | < 1 | < 0.1 |
| O=C(NC/C=C/S(=O)(=O)c1ccccc1)C(=O)NCc1ccccc1C(=O)NC1(c2ccc3ccccc3c2)CC1 [Example 173] | < 1 | < 0.1 |
| O=C(NCC#Cc1ccccn1)C(=O)NCc1ccccc1C(=O)NC1(c2ccc3ccccc3c2)CC1 [Example 174] | < 1 | < 0.1 |
| O=C(NCC#Cc1ccc(C(F)(F)F)cc1F)C(=O)NCc1ccccc1C(=O)NC1(c2ccc3ccccc3c2)CC1 [Example 175] | 1 to 10 | 0.1 to 1 |
| O=C(NCC#Cc1ncc(F)cn1)C(=O)NCc1ccccc1C(=O)NC1(c2ccc3ccccc3c2)CC1 [Example 176] | < 1 | < 0.1 |
| O=C(NCC#Cc1nc2ccccc2s1)C(=O)NCc1ccccc1C(=O)NC1(c2ccc3ccccc3c2)CC1 [Example 177] | 1 to 10 | 0.1 to 1 |
| Cc1cc(C)nc(C#CCNC(=O)C(=O)NCc2ccccc2C(=O)NC2(c3ccc4ccccc4c3)CC2)n1 [Example 178] | < 1 | < 0.1 |
| O=C(NCC#Cc1ncc(F)s1)C(=O)NCc1ccccc1C(=O)NC1(c2ccc3ccccc3c2)CC1 [Example 179] | < 1 | < 0.1 |
| O=C(NCC#Cc1cnc(C2CC2)nc1)C(=O)NCc1ccccc1C(=O)NC1(c2ccc3ccccc3c2)CC1 [Example 180] | 1 to 10 | 1 to 10 |
| O=C(NCC#Cc1cnc(C(F)(F)F)nc1)C(=O)NCc1ccccc1C(=O)NC1(c2ccc3ccccc3c2)CC1 [Example 181] | < 1 | < 0.1 |
| C[C@@H](C#Cc1nccs1)NC(=O)C(=O)NCc1ccccc1C(=O)NC1(c2ccc3ccccc3c2)CC1 [Example 183] | < 1 | < 0.1 |
| C[C@@H](C#Cc1nccs1)NC(=O)C(=O)NCc1ccccc1C(=O)NC1(c2ccc3nn(C)cc3c2)CC1 [Example 184] | < 1 | < 0.1 |
| C[C@@H](C#Cc1nccs1)NC(=O)C(=O)NCc1ccccc1C(=O)NC1(c2cc(F)cc(-c3cnn(C4CC4)c3)c2)CC1 [Example 185] | < 1 | < 0.1 |
| COc1cccc(C#CCNC(=O)C(=O)NCc2ccccc2C(=O)NC2(c3ccc4ccccc4c3)CC2)n1 [Example 186] | < 1 | < 0.1 |
| O=C(NCC#Cc1cc(F)ccn1)C(=O)NCc1ccccc1C(=O)NC1(c2ccc3ccccc3c2)CC1 [Example 187] | < 1 | < 0.1 |
